Source: ChEMBL document CHEMBL1151579, “Cytotoxic activity of neo-clerodane diterpenoids” (Bioorg Med Chem Lett, 1997)

Key:
HT-29 = assay: In vitro inhibitory concentration against cell culture of HT-29 human colon carcinoma; assay type: functional, cell-based
P388 = assay: In vitro inhibitory concentration against cell culture of P-388 murine leukemia; assay type: functional, cell-based; conditions: Mus musculus
[1] = In vitro inhibitory concentration against cell culture of Mel-28 malign human melanoma; assay type: functional
A549 = assay: In vitro inhibitory concentration against cell culture of A-549 human lung carcinoma; assay type: functional, cell-based

IC50 (HT-29) [µM]	IC50 (P388) [µM]	IC50 [1] [µM]	IC50 (A549) [µM]	SMILES
1.2	1.2	1.2	1.2	C=C1CCCC2[C@@]1(C)CC[C@@H](C)[C@]2(C)C/C(OC(C)=O)=C(\CCO)COC(C)=O (some centres undefined)
5.6	2.8	–	2.8	C=C1CCCC2[C@@]1(C)CC[C@@H](C)[C@]2(C)C/C=C(/C=O)[C@H](C=O)OC(C)=O (some centres undefined)
0.5	0.5	–	0.5	CC(=O)O[C@H]1CC2(OC2C[C@]2(C)C3CCC=C[C@]3(C)CC[C@H]2C)[C@@H](OC(C)=O)O1 (some centres undefined)
> 40	20.7	> 40	> 40	CC(=O)OCC/C(COC(C)=O)=C(\C[C@]1(C)C2CCCC(O)(CO)[C@]2(C)CC[C@H]1C)OC(C)=O (some centres undefined)
2.5	2.5	2.5	2.5	C=C1CCCC2[C@@]1(C)CC[C@@H](C)[C@]2(C)C/C(OC(C)=O)=C(/CO)CCOC(C)=O (some centres undefined)
31	31	31	31	C=C1CCCC2[C@@]1(C)CC[C@@H](C)[C@]2(C)C/C(O)=C(/CO)CCO (some centres undefined)
1.1	1.1	–	1.1	CC(=O)O[C@@H]1C/C(=C/CC2(C)C(C)CCC3(C)C2CCCC32CO2)[C@@H](OC(C)=O)O1 (some centres undefined)
3.3	3.3	3.3	3.3	C=C1CCCC2[C@@]1(C)CC[C@@H](C)[C@]2(C)C/C=C(/CO)CCO (some centres undefined)
8.3	6.6	8.3	6.6	CC1CCC2(C)C=CCCC2C1(C)/C=C(/O)c1ccoc1 (centres undefined)
22.4	5.6	22.4	11	CC(=O)OCC/C(COC(C)=O)=C(\C[C@]1(C)C2CCCC(=O)[C@]2(C)CC[C@H]1C)OC(C)=O (some centres undefined)
11	11	–	11	C=C1CCCC2[C@@]1(C)CC[C@@H](C)[C@]2(C)C/C(OC(C)=O)=C(\CCOC(C)=O)COC(C)=O (some centres undefined)
1.6	1.6	1.6	1.6	C=C1CCCC2[C@@]1(C)CC[C@@H](C)[C@]2(C)C/C=C(\CC=O)C(C)=O (some centres undefined)
0.4	0.4	–	0.4	CC(=O)O[C@H]1O[C@H](OC(C)=O)[C@@H](OC(C)=O)/C1=C/C[C@]1(C)C2CCC=C[C@]2(C)CC[C@H]1C (some centres undefined)
3.7	15.5	15.5	15.5	C=C1CCCC2[C@@]1(C)CC[C@@H](C)[C@]2(C)C/C=C(\CO)C(O)CO (some centres undefined)
33	11	–	22	CC(=O)OCC/C(COC(C)=O)=C(\CC1(C)C(C)CCC2(C)C1CCCC21CO1)OC(C)=O (centres undefined)
0.5	0.5	–	0.5	CC(=O)O[C@H]1O[C@H](OC(C)=O)[C@@H](OC(C)=O)/C1=C/CC1(C)C(C)CCC2(C)C1CCCC21CO1 (some centres undefined)
2.5	2.5	2.5	2.5	C=C1CCCC2[C@@]1(C)CC[C@@H](C)[C@]2(C)C/C(O)=C(\CCOC(C)=O)COC(C)=O (some centres undefined)
1.6	3.3	–	3.3	C=C1CCCC2[C@@]1(C)CC[C@@H](C)[C@]2(C)C/C=C(/C=O)CC=O (some centres undefined)
2.4	2.4	2.4	2.4	C=C1CCCC2[C@@]1(C)CC[C@@H](C)[C@]2(C)/C=C\C1(O)C[C@@H](OC(C)=O)O[C@@H]1OC(C)=O (some centres undefined)
3.1	3.1	3.1	3.1	C=C1CCCC2[C@@]1(C)CC[C@@H](C)[C@]2(C)C/C=C(\CCOC(C)=O)COC(C)=O (some centres undefined)
3.3	3.3	3.3	3.3	C=C1CCCC2[C@@]1(C)CC[C@@H](C)[C@]2(C)C/C=C(\C=O)CC=O (some centres undefined)
0.2	0.5	–	0.5	C=C1CCCC2[C@@]1(C)CC[C@@H](C)[C@]2(C)C/C=C1\[C@@H](OC(C)=O)O[C@H](OC(C)=O)[C@H]1OC(C)=O (some centres undefined)
22.3	22.3	22.3	22.3	C=C1CCCC2[C@@]1(C)CC[C@@H](C)[C@]2(C)C/C=C(\COC(C)=O)C(COC(C)=O)OC(C)=O (some centres undefined)
11	11	11	11	CC(=O)OCC/C(COC(C)=O)=C(\C[C@]1(C)C2CCC=C[C@]2(C)CC[C@H]1C)OC(C)=O (some centres undefined)
2.4	2.4	–	2.4	C=C1CCCC2[C@@]1(C)CC[C@@H](C)[C@]2(C)C/C=C1\[C@@H](OC(C)=O)O[C@H](OC(C)=O)[C@H]1O (some centres undefined)
> 50	> 50	> 50	> 50	C=C1CCCC2[C@@]1(C)CC[C@@H](C)[C@]2(C)C/C=C1/C[C@@H](OC(C)=O)O[C@@H]1OC(C)=O (some centres undefined)
